Data set [1] is described as follows: clinical. To be noted: human, in vivo, intravenous, 50 mg/kg.
The conditions of data set [2]: LexiComp monograph; cited from earlier work.
The conditions of data set [3]: constituted, cited from earlier work.
Data set [4] concerns haploidentical HCT. As to conditions: at 1 year; cited from earlier work.
The subject of data set [5] is haploidentical HCT. To be noted: CTN 0603; cited from earlier work.
The conditions of data set [6]: cited from earlier work.
The conditions of data set [7]: 1-octanol/water (pH 7.4) buffer solution; cited from earlier work.
The conditions of data set [8]: cited from earlier work. The source holds these as a separate data set.

Consider three molecules from patent US12678464B2, “Methods for stem cell transplantation” (The UAB Research Foundation, priority 2015, dated 2026).

Converted amounts (≈) assume the structure as drawn. Read-outs that look alike come from different tables or passages of the source.

In turn, `O=P1(N(CCCl)CCCl)NCCCO1` (stereo not shown) [Cyclophosphamide, 2-[bis(2-cholorethyl)amino]tetrahydro-2H-1,3,2-oxazaphosphorine 2-oxide monohydrate] showed a half-life in data set [1] of 60 h. Besides, the elimination half-life in data set [2] is 3 to 12 h. Moreover, the figures for the “physically and chemically stable” value in data set [3] (refrigerated) and in data set [3] (room temperature) were “six” and 24 h, respectively. The relapse rate in data set [4] is 51%; in data set [5] it was 45%.
Turning to `COc1c(C)c2c(c(O)c1C/C=C(\C)CCC(=O)OCCN1CCOCC1)C(=O)OC2` [Mycophenolate mofetil, 2-morpholinoethyl (E)-6-(1,3-dihydro-4-hydroxy-6-methoxy-7-methyl-3-oxo-5-isobenzofuranyl)-4-methyl-4-hexenoate], the solubility in acetone entry in data set [6] (acetone, in words) is listed as “freely soluble”. Moreover, the solubility in ethanol entry in data set [6] (in words) is recorded as “sparingly soluble”. In data set [6] (in words), the solubility in methanol entry is listed as “soluble”. Further, in data set [6] (pH 3.6), the “solubility in an acidic medium” value was 4270 µg/mL (≈ 9.85 mM). Moreover, the solubility in water in data set [6] (pH 7.4) is 43 µg/mL (≈ 0.0992 mM); in data set [6] (water, in words), “slightly soluble”. In data set [7], the apparent partition coefficient is reported as 238. Moreover, the pKa is 5.6 in data set [8] (morpholino group) and 8.5 in data set [8] (phenolic group).
Turning to `C=CC[C@@H]1/C=C(\C)C[C@H](C)C[C@H](OC)[C@H]2O[C@@](O)(C(=O)C(=O)N3CCCC[C@H]3C(=O)O[C@H](/C(C)=C/[C@@H]3CC[C@@H](O)[C@H](OC)C3)[C@H](C)[C@@H](O)CC1=O)[C@H](C)C[C@@H]2OC` [Tacrolimus], the solubility in chloroform entry in data set [6] (chloroform, in words) is “very soluble”. Moreover, in data set [6] (in words), the solubility in ethanol result is given as “freely soluble” and the solubility in methanol result is “very soluble”. In addition, in data set [6] (water, in words), the solubility in water entry is “practically insoluble”.
